Legend:
Type in all cases: cell-based
[1] = test system: Normal human dermal fibroblasts (HNDF); experiment: Myofibroblast transition assay (MFT), aSMA immunofluorescence; conditions: N = 3; for Myofibroblast transition (MFT), aSMA/cell, % change relative to control: TGF-Beta induced HNDF, control of no peptide
Summary of the method: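 HNDFs serum-starved (1% FBS) 4 h, then stimulated with 20 ng/ml TGF-beta plus peptide at various concentrations for 5 days. Fixed cells immunostained for aSMA with DAPI counterstain, imaged by cytometer; aSMA/DAPI ratio gives aSMA per cell, normalized to no-peptide control.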

[2] = test system: Acinetobacter baumannii ATCC 196062; experiment: Diffusion agar plate method, zone of inhibition; conditions: 62.5 μg/ml to 1000 μg/ml; FIG. 5, FIG. 10
Experimental: (§1) Cell culture: Cultures of each bacterial strain were prepared by inoculating on Muller Hinton Agar (MHA) medium. After overnight incubation at 37° C., the density of the bacterial cells was compared to the McFarland turbidity standard (0.5).
(§2) Plates were swabbed with McFarland 0.5 inoculum of each test bacteria. […] serial dilutions of the peptides were prepared and 20 μl of compound were dropped onto the MHA. Antibiotic disc served as a positive control and vehicle alone served as the negative control. Plates were incubated for 16-18 hours and assessed for antibacterial activity. Zones of inhibition were measured for each TA dilution and compared with the controls.

[3] = test system: Staphylococcus aureus USA300 (NRS384), ST80, JE2, MRSA col; experiment: Diffusion agar plate method, zone of inhibition; conditions: 62.5 μg/ml to 1000 μg/ml; FIG. 5
Experimental: as §1, §2

[4] = test system: Pseudomonas aeruginosa ATCC 27853; experiment: Diffusion agar plate method, zone of inhibition; conditions: 62.5 μg/ml to 1000 μg/ml; FIG. 5
Experimental: as §1, §2

[5] = test system: interleukin-8 (IL-8) production in human fibroblasts; experiment: Fibroblast inflammation assay (LPS-induced IL-8, ELISA); conditions: N = 3, 5 μg/mL LPS, 24 hours
Experimental: Inflammation in fibroblasts leads to the production of the chemokine interleukin-8 (IL-8), which stimulates fibroblast to myofibroblast transition (MFT) thereby enhancing scar formation. To determine if the peptides of the instant disclosure affect fibroblast response to inflammation and fibroblast IL-8 production, the following assays were performed.
Human fibroblasts were grown as described above. HNDFs were plated in 96 well plates at a concentration of 1×10^4 cells/well and allowed to incubate overnight. The next day cells were dosed with 5 μg/mL of LPS with and without the peptides. The negative control contained only media and vehicle, while the positive control was dosed with lipopolysaccharides (LPS) and dexamethasone (50 μg/ml). After 24 hours, the media was removed to measure IL6 and IL8 cytokine levels using ELISA. A standard curve was plotted in excel. All data were blank subtracted and then fit onto the curve to calculate cytokine concentrations.

[6] = test system: Acinetobacter baumannii ATCC 196062; experiment: Broth microdilution method (MIC50/MIC90)
Experimental: as §1
(§3) Ten-fold serial dilution of the peptide along with controls were prepared in Mueller Hinton Broth (MHB) media in a total volume of 50 μl in 96 well plates. Additionally, 50 μl of the diluted standard inoculum (1:150 in MHB media) were added to each of the well plates. The plates were read at OD600 nm. MIC50 and MIC90 curves were calculated from the plate readout. Each sample was run in duplicate.

[7] = test system: Staphylococcus aureus strains, including the MRSA col strain; experiment: Broth microdilution method (MIC50/MIC90)
Experimental: as §1, §3

[8] = test system: Klebsiella pneumoniae ATCC 10031; experiment: Broth microdilution method (MIC50/MIC90)
Experimental: as §1, §3

[9] = test system: Pseudomonas aeruginosa ATCC 27853; experiment: Broth microdilution method (MIC50/MIC90)
Experimental: as §1, §3

[10] = test system: Acinetobacter baumannii ATCC 196062; experiment: Minimum bactericidal concentration (MBC); conditions: agar plates; FIG. 9
Experimental: (§4) The minimum bactericidal concentration (MBC) test determines the lowest concentration at which an antimicrobial agent will kill a particular microorganism. The MBC is determined using a series of steps, undertaken after a Minimum Inhibitory Concentration (MIC) test has been completed. o determine the MBC, the dilution representing the MIC and at least two of the more concentrated test product dilutions are plated and enumerated to determine viable CFU/ml. The […] of the peptides was determined as the lowest concentration in which colony forming units (CFU) values were <5 colonies/10 μl of culture.

[11] = test system: Klebsiella pneumoniae ATCC 10031; experiment: Minimum bactericidal concentration (MBC); conditions: agar plates; FIG. 9
Experimental: as §4

[12] = test system: Staphylococcus aureus ST80; experiment: Minimum bactericidal concentration (MBC); conditions: agar plates; FIG. 9
Experimental: as §4

[13] = test system: Staphylococcus aureus, Streptococcus pneumoniae, Klebsiella pneumoniae, Pseudomonas aeruginosa, Acinetobacter baumannii; experiment: Antimicrobial assays, growth of bacterial strains
Experimental: Infection is another perturbation that causes fibrosis and may delay or inhibit wound healing. To determine if the peptides of the instant disclosure affect the growth of bacteria, and thus may be appropriate as antimicrobial peptides to be used in anti-fibrotic treatments, growth of the following bacterial strains was tested with the exemplary peptides: Staphylococcus aureus: USA300, ST80, JE2, and MRSA col; Streptococcus pneumoniae: DCC1335 and D39; Klebsiella pneumoniae; Pseudomonas aeruginosa; and Acinetobacter baumannii. […] Thus, in some embodiments, the peptides of the instant disclosure may bacterial growth, by a least 20%, at least 30%, at least 40%, at least 50%, at least 60%, at least 70%, or at least 80% relative to the control.
To determine which peptides may be used to inhibit the growth of bacteria in tissue, the minimum inhibitory and bactericidal concentrations of exemplary peptides against both Gram-positive and Gram-negative bacteria were assessed. […]
The antimicrobial effects of the exemplary peptides were assessed in the following bacterial strains: Staphylococcus aureus: USA300, ST80, JE2, and MRSA col; Streptococcus pneumoniae: DCC1335 and D39; Klebsiella pneumoniae ATCC 10031; Pseudomonas aeruginosa ATCC 27853; and Acinetobacter baumannii ATCC 196062. […]

Sequence: FAYCRSKGLRKRLRKFRNK [MBb32]
- Myofibroblast transition (MFT), aSMA/cell, % change relative to control ([1]; 100 ng/ml peptide): −0.2592%
- Myofibroblast transition (MFT), aSMA/cell, % change relative to control ([1]; 1000 ng/ml peptide): −0.3087%
- MFT, Representative value from experiments (% change relative to control) ([1]; most effective significant concentration of 10, 100, 1000 ng/ml): −0.3087 p = (0.039) %
- agar zone of inhibition, inhibiting bacterial growth [2]: effective
- agar zone of inhibition, inhibiting bacterial growth [3]: effective
- agar zone of inhibition, inhibiting bacterial growth [4]: effective
- Fibroblast induced chemokine production (IL-8) induced by LPS (% change relative to control) ([5]; 100 ug/ml peptide): 4% (p = .054)
- Fibroblast induced chemokine production (IL-8) induced by LPS (% change relative to control) ([5]; 1000 ug/ml peptide): 29% (p = 0.035)
- MIC50, growth inhibition of bacteria in broth [6]: lowest MIC50
- MIC50, growth inhibition of bacteria in broth [7]: low MIC50
- MIC50, growth inhibition of bacteria in broth [8]: low MIC50
- MIC50, growth inhibition of bacteria in broth [9]: low MIC50
- minimum bactericidal concentration (MBC), bactericidal effect [10]: bactericidal effect
- minimum bactericidal concentration (MBC), bactericidal effect [11]: bactericidal effect
- minimum bactericidal concentration (MBC), bactericidal effect [12]: bactericidal effect
- inhibition of bacterial growth among those peptides tested [13]: strongest effect

— patent US20250108088A1, “REGENERATIVE PEPTIDES AND METHODS FOR USE THEREOF” (priority 2023, published 2025)
